Laboratory results as given in patent EP0583821A1, “Atriopeptins, guanylate cyclase activators, and phosphodiesterase inhibitors as treatment for glaucoma, hydrocephalus and cerebral edema (cranial fluid volume dysfunction)” (THE GENERAL HOSPITAL CORPORATION, priority 1987, dated 1988).

Target: T1, guanylate cyclase (Oryctolagus cuniculus, UniProt G1TXB5)
T1 sequence (G1TXB5 28-1056): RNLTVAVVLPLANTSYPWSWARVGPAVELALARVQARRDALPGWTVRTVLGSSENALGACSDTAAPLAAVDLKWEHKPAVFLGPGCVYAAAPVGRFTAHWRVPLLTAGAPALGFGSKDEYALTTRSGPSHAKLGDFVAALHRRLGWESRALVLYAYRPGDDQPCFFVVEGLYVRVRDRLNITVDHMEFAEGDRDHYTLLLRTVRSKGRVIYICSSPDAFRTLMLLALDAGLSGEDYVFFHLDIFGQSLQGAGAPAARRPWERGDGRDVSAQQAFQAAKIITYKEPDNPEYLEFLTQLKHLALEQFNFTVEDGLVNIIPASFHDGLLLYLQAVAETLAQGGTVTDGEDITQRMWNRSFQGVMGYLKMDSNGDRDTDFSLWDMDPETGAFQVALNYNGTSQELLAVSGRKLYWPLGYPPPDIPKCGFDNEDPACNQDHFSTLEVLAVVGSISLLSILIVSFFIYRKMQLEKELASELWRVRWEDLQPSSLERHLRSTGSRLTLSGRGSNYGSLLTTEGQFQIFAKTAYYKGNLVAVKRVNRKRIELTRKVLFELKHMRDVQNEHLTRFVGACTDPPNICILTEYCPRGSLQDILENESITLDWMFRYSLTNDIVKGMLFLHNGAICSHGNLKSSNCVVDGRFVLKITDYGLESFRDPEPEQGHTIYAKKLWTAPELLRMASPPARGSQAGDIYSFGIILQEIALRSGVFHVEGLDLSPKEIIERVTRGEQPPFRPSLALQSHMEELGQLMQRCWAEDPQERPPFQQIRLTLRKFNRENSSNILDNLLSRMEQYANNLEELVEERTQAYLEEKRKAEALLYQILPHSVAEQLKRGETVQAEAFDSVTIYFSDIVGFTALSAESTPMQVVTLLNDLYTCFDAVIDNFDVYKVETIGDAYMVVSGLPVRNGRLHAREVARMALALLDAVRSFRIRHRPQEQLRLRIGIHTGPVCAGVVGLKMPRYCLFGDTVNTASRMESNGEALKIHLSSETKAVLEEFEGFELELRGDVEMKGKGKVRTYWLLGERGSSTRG
Experiment: Atriopeptin-activated guanylate cyclase in kidney membrane (P1) fractions
Format: biochemical, rabbit
Design: tissues were homogenized (10 mg wet weight per milliliter); from tissue; host or cells: rabbit cerebral microvessels, choroid plexus, kidney, ciliary process, pia-arachnoid, cerebellum; 100,000 g P1 pellet
Conditions: mean ± range of duplicate determinations
Experimental: The effect of rANP on membrane-bound guanylate cyclase and adenylate cyclase activity in various brain-barrier tissues and tissue fractions from rabbit was compared with its activity in cerebrum and cerebellum. Guanylate cyclase was measured as the rate of cyclic GMP formation by modifications of the technique of Waldman et al., supra, incorporated herein by reference. Briefly, tissues were homogenized (10 mg wet weight per milliliter) in 50 mM tris-HCl, pH 8.0, 1 mM EDTA, 1 mM dithiothreitol, and 250 mM sucrose and centrifuged at 100,000g to obtain a P1 pellet. Reaction tubes contained (in 0.3 ml), 50 mM tris, pH 7.6, 6 mM MnCl₂, 0.5 mM 3-isobutyl, 1-methylxanthine (IBMX), 10 mM theophylline, 3 mM GTP, hormone (in 0.03 ml containing 2.5 mM ascorbic acid and 0.1% bovine serum albumin), and 0.06 ml of P1 fraction (40 to 60 ug of protein). The reaction (4 minutes at 30°C) was started by addition of GTP and terminated by addition of 0.3 ml of 150 mM sodium acetate (pH 4.0) and boiling for 3 minutes. Cyclic GMP formed was subsequently measured by radioimmunoassay as described in example 6, infra. Under these conditions, guanylate cyclase activity was linear with time and tissue concentration. Adenylate cyclase activity in P1 fractions was measured according to the method described by Nathanson, et al., Science; 204:843 (1979); Mol. Pharmacol. 18:199 (1980), see Figure 1C . […] Neurosci. Abstr., 10, 899 (1984); Nathanson, et al., Soc. Neurosci. Abstr., 12, 1257 (1986), incorporated herein by reference, but with a lower concentration (0.025%) of trypsin and a rotating tissue tumbler which allowed cleaner fractionation of epithelial cells from erythrocytes and vascular components.
Ciliary process tips were obtained from male, 3-4 kg, New Zealand white rabbits, immediately following sacrifice with an overdose of ether, as described in Nathanson, Invest. Ophthal. Vis. Sci., 21:7981 (1982). […]
Atriopeptin-activated guanylate cyclase activity was measured as the rate of conversion of GTP to cyclic GMP. […]

Row | Substance | Vmax Stimulation (%) of Guanylate Cyclase Kidney [%]
1 | Ser-Leu-Arg-Arg-atriopeptin III (APIII) [rANP 1-28] | 129 ± 25
2 | rANP 13-28 (DRIGAQSGLGCNSFRY; Atrial natriuretic peptide; UniProt P01161 135-150, looked up, fragment) | 54 ± 4
